Several values for one entry are separate records, joined by “and”; a condition that tells them apart may be missing. Equal values may be shown once. Read-outs that look alike come from different tables or passages of the source.
Legend:
Type in all cases: cell-based
[1] = biological target: T1, human prostanoid FP receptor (Homo sapiens, UniProt P43088); experiment: FLIPR Ca2+ signaling antagonist assay, FP receptor stable cell line; details: HEK-293 EBNA stable cells, vs standard agonist 17-phenyl-PGF2α
T1 construct: expressed in transfected cells
Procedure: (§1) The above compounds were tested for PG antagonist activity as follows using human recombinant prostanoid receptor (DP1, EP1-4, FP, IP and TP) stable cell lines:
(§2) In order to measure the response of Gs and Gi coupled prostanoid receptors as a Ca^2+ signal, chimeric G protein cDNAs were used. Stable cell lines over-expressing human prostanoid DP1, EP1-4, FP, IP, and TP receptors were established as follows:
(§3) Briefly, human prostanoid DP1, EP2, and EP4 receptor cDNAs were co-transfected with chimeric Gqs cDNA containing a haemagglutanin (HA) epitope; human prostanoid EP3 receptors were co-transfected with chimeric Gqi-HA; human EP1, FP, IP, and TP receptor cDNAs were expressed with no exogenous G-proteins. Gqs and Gqi chimeric cDNAs (Molecular Devices, Sunnyvale, Calif., U.S.A.), as well as cDNAs of prostanoid receptors, were cloned into a pCEP4 vector with a hygromycin B selection marker. Transfection into HEK-293 EBNA (Epstein-Barr virus nuclear antigen) cells was achieved by the FuGENE 6 transfection Reagent (Roche Applied Science, Indianapolis, Ind., USA). Stable transfectants were selected according to hygromycin resistance. Because Gqs and Gqi contained an HA epitope, G-protein expression was detected by Western blotting analysis using anti-mouse HA monoclonal antibody and horseradish peroxidase (HRP)-conjugated secondary antibody, while functional expression of prostanoid receptors was detected by FLIPR screening. These stable cell lines were validated using previously published antagonists at 10 μM against serial dilutions of standard agonists by FLIPR functional assays for Ca^2+ Signaling (as described below).
(§4) Ca^2+ signaling studies were performed using a FLIPR TETRA system (Molecular Devices, Sunnyvale, Calif., USA) in the 384-format. This is a high-throughput instrument for cell-based assays to monitor Ca^2+ signaling associated with GPCRs and ion channels. Cells were seeded at a density of 5×10^4 cells/well in BioCoat poly-D-lysine coated, black wall, clear bottom 384-well plates (BD Biosciences, Franklin lakes, NJ, USA) and allowed to attach overnight in an incubator at 37° C. […]
(§5) After 4.5 minutes, a 7-point serial dilution of the standard agonist for the corresponding receptor, in a 25 μl volume was injected at the final concentrations from 10^−11M to 10^−5M 10-fold serial dilution increments for cells expressing human recombinant DP1, EP1, EP2, EP3, EP4, FP, and IP receptors. […] Cells were excited with LED (light emitting diode) excitation at 470-495 nm and emission was measured through an emission filter at 515-575 nm. Assay plates were read for 3.5 minutes using the FLIPR^TETRA. The peak increase in fluorescence intensity was recorded for each well. […]

[2] = biological target: T2, human prostanoid EP1 receptor (Homo sapiens, UniProt P34995); experiment: FLIPR Ca2+ signaling antagonist assay, EP1 receptor stable cell line; details: vs standard agonist PGE2
T2 construct: expressed in transfected cells
T2 sequence (P34995 1-402): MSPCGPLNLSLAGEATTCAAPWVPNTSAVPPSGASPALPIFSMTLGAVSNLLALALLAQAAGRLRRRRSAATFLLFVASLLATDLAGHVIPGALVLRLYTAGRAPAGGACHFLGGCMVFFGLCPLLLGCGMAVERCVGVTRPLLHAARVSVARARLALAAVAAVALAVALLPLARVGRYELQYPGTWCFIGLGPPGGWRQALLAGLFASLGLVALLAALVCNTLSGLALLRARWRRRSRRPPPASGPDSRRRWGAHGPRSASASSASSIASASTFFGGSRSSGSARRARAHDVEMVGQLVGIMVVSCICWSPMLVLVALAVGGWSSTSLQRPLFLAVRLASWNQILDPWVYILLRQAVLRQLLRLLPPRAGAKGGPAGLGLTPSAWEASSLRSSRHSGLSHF
Procedure: as §1, §2, §3, §4, §5

[3] = biological target: T3, human prostanoid EP2 receptor (Homo sapiens, UniProt P43116); experiment: FLIPR Ca2+ signaling antagonist assay, EP2 receptor stable cell line; details: chimeric Gqs, vs standard agonist PGE2
T3 construct: expressed in transfected cells
Procedure: as §1, §2, §3, §4, §5

[4] = biological target: T4, human prostanoid EP3 receptor (Homo sapiens, UniProt P43115); experiment: FLIPR Ca2+ signaling antagonist assay, EP3 receptor stable cell line; details: chimeric Gqi, vs standard agonist PGE2
T4 construct: expressed in transfected cells
T4 sequence (P43115 1-390): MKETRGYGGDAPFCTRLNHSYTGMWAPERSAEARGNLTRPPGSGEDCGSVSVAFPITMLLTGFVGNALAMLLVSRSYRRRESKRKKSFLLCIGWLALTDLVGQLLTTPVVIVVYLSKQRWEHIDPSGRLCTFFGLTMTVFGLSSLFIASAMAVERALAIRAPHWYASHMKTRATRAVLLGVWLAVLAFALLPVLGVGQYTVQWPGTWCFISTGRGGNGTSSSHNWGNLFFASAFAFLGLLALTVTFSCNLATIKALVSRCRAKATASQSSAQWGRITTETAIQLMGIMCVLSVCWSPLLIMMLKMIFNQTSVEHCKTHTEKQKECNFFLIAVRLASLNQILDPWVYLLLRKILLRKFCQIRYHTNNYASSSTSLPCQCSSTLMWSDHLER
Procedure: as §1, §2, §3, §4, §5

[5] = biological target: T5, human prostanoid EP4 receptor (Homo sapiens, UniProt P35408); experiment: FLIPR Ca2+ signaling antagonist assay, EP4 receptor stable cell line; details: chimeric Gqs, vs standard agonist PGE2
T5 construct: expressed in transfected cells
Procedure: as §1, §2, §3, §4, §5

[6] = biological target: T6, human prostanoid IP receptor (Homo sapiens, UniProt P43119); experiment: FLIPR Ca2+ signaling antagonist assay, IP receptor stable cell line; details: HEK-293 EBNA stable cells, vs standard agonist Cicaprost
T6 construct: expressed in transfected cells
Procedure: as §1, §2, §3, §4, §5

[7] = biological target: T7, human prostanoid TP receptor (Homo sapiens, UniProt P21731); experiment: FLIPR Ca2+ signaling antagonist assay, TP receptor stable cell line
T7 construct: expressed in transfected cells
T7 sequence (P21731 1-343): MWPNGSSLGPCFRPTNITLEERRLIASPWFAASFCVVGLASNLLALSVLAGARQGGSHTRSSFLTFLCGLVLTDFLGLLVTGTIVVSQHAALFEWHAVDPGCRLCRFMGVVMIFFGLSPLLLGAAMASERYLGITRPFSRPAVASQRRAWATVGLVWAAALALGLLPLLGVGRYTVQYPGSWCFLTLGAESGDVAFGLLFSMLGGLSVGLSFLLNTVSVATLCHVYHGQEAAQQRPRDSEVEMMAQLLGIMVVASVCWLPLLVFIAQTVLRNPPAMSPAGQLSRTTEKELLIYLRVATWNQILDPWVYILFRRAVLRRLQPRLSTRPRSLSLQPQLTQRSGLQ
Procedure: as §1, §2
as §3, with “These stable cell lines were validated using previously published antagonists at 10 μM against serial dilutions of standard agonists by FLIPR functional assays for Ca^2+ Signaling (as described below).” left out
as §5

[8] = biological target: T8, human prostanoid DP1 receptor (Homo sapiens, UniProt Q13258); experiment: FLIPR Ca2+ signaling antagonist assay, DP1 receptor stable cell line
T8 construct: expressed in transfected cells
T8 sequence (Q13258 1-359): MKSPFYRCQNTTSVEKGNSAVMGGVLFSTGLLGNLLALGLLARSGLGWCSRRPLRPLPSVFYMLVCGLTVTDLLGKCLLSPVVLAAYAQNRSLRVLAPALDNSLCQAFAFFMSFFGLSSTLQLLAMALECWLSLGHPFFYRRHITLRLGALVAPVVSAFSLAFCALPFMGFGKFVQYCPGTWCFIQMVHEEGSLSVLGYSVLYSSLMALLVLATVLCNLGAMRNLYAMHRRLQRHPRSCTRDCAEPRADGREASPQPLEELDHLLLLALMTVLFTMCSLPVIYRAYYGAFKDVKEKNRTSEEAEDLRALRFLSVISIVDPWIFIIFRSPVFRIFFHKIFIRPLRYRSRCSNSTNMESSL
Procedure: as §1, §2
Briefly, human prostanoid DP1, EP2, and EP4 receptor cDNAs were co-transfected with chimeric Gqs cDNA containing a haemagglutanin (HA) epitope; human prostanoid EP3 receptors were co-transfected with chimeric Gqi-HA; human EP1, FP, IP, and TP receptor cDNAs were expressed with no exogenous G-proteins. […] Because Gqs and Gqi contained an HA epitope, G-protein expression was detected by Western blotting analysis using anti-mouse HA monoclonal antibody and horseradish peroxidase (HRP)-conjugated secondary antibody, while functional expression of prostanoid receptors was detected by FLIPR screening. […]
After 4.5 minutes, a 7-point serial dilution of the standard agonist for the corresponding receptor, in a 25 μl volume was injected at the final concentrations from 10^−11M to 10^−5M 10-fold serial dilution increments for cells expressing human recombinant DP1, EP1, EP2, EP3, EP4, FP, and IP receptors. […] Assay plates were read for 3.5 minutes using the FLIPR^TETRA. […]

[9] = read-out: EC50 (nM) on Prostanoid Receptor Functional Activity Measured by FLIPR
[10] = HEK-293 EBNA stable cells, read-out: EC50 (nM) on Prostanoid Receptor Functional Activity Measured by FLIPR, (FLIPR) Kb (nM): EP1
[11] = HEK-293 EBNA stable cells, read-out: EC50 (nM) on Prostanoid Receptor Functional Activity Measured by FLIPR, (FLIPR) Kb (nM): EP2
[12] = HEK-293 EBNA stable cells, read-out: EC50 (nM) on Prostanoid Receptor Functional Activity Measured by FLIPR, (FLIPR) Kb (nM): EP3
[13] = HEK-293 EBNA stable cells, read-out: EC50 (nM) on Prostanoid Receptor Functional Activity Measured by FLIPR, (FLIPR) Kb (nM): EP4
[14] = HEK-293 EBNA stable cells, vs standard agonist U-46619, read-out: EC50 (nM) on Prostanoid Receptor Functional Activity Measured by FLIPR, (FLIPR) Kb (nM): TP
[15] = EC50 (nM) on Prostanoid Receptor Functional Activity Measured by FLIPR

T5 sequence (P35408 whole entry): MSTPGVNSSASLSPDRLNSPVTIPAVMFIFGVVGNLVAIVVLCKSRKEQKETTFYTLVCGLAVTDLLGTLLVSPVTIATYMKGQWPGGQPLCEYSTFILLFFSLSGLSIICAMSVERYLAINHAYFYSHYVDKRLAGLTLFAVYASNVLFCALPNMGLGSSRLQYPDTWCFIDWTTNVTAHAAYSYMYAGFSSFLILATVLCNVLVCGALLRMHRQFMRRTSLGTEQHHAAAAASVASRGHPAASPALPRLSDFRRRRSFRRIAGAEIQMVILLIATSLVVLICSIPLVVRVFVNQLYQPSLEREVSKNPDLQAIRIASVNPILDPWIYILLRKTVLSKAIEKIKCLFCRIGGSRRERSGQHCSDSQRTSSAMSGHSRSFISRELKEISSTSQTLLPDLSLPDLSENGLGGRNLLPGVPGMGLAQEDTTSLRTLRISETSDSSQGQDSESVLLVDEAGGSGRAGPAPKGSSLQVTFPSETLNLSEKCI
T6 sequence (P43119 whole entry): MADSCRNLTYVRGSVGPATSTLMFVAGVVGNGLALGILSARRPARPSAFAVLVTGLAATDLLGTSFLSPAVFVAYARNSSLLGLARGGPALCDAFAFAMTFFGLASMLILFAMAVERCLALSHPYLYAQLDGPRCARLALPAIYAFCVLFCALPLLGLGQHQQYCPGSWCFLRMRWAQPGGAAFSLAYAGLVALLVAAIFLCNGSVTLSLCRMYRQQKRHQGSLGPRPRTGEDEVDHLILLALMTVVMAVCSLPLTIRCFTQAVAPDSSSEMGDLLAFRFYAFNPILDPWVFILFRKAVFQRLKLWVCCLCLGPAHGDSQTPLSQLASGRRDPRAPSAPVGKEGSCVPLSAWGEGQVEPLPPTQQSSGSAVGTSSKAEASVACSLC
T3 sequence (P43116 whole entry): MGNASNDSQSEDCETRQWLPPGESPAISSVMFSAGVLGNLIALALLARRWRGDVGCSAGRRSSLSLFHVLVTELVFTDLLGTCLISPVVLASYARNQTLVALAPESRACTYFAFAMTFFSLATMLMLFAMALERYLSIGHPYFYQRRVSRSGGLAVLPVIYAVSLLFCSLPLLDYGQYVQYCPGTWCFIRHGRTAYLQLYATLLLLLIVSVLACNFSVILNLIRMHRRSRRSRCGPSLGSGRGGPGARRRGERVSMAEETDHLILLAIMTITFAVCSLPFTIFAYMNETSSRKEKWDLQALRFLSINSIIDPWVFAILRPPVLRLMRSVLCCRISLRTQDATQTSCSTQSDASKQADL
T1 sequence (P43088 whole entry): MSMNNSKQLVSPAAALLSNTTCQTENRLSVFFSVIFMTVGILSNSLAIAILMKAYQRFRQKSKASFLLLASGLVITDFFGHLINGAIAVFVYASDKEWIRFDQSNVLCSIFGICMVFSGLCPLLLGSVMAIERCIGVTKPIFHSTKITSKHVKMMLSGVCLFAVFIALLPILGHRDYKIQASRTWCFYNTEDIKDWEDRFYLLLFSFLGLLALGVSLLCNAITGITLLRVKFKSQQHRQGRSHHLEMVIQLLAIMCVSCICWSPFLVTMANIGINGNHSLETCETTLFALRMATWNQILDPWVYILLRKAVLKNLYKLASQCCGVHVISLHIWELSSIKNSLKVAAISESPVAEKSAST

`O=C(CCc1ccc(F)cc1CN1CCC[C@H]1c1nc(C(=O)NCCCCC2CCCCC2)co1)NS(=O)(=O)C(F)(F)F` [Example 12a] was tested, and the Kb [1, 9] was 350 nM and 270 nM, the Kb [2, 10] was 47 nM and 20 nM and the Kb [3, 11] was 6400 nM and 830 nM. For the same compound, the Kb [4, 12] was 82 nM and 47 nM, the Kb [5, 13] was 38 nM and 10 nM and the Kb [6, 9] was 550 nM and 860 nM. The Kb [7, 14] was less than 1 nM.
For `O=C(CCc1ccc(Cl)cc1CN1CCC[C@H]1c1nc(C(=O)NCCCCC2CCCCC2)co1)NS(=O)(=O)C(F)(F)F` [Example 12b, (S)—N-(4-cyclohexylbutyl)-2-(1-(5-chloro-2-(3-oxo-3-(trifluoromethylsulfonamido)propyl)benzyl)pyrrolidin-2-yl)oxazole-4-carboxamide], the Kb [1, 9] was 460 nM, the Kb [2, 10] was 70 nM and the Kb [3, 11] was 5500 nM. The Kb [4, 12] was 100 nM, the Kb [5, 13] was 37 nM and the Kb [6, 9] was 9500 nM.
`O=C(CCc1cc2c(cc1CN1CCCC1c1nc(C(=O)NCCCCC3CCCCC3)co1)OCO2)NS(=O)(=O)C(F)(F)F` (centres unmarked) [Example 12d] was tested, and the Kb [1, 9] was 360 nM, the Kb ([8]; HEK-293 EBNA stable cells, chimeric Gqs, vs standard agonist BW 245C, read-out: EC50 (nM) on Prostanoid Receptor Functional Activity Measured by FLIPR, (FLIPR) Kb (nM): DP) was 3 nM and the Kb [2, 10] was 63 nM. It also gave a Kb [3, 11] of 3900 nM, a Kb [4, 12] of 150 nM and a Kb [5, 13] of 7 nM. The Kb [6, 9] was 1000 nM and the Kb [7, 14] was 0.3 nM.
In the case of `CCCCCCCCNC(=O)c1coc(C2CCCN2Cc2cc(F)ccc2CCC(=O)NS(=O)(=O)C(F)(F)F)n1` (centres unmarked) [Example 12e, 2-{1-[5-fluoro-2-(3-oxo-3-{[(trifluoromethyl)sulfonyl]amino}propyl)benzyl]pyrrolidin-2-yl}-N-octyl-1,3-oxazole-4-carboxamide], the Kb [1, 15] is reported as 270 nM, the Kb [8] is reported as 18 nM and the Kb ([2]; EC50 (nM) on Prostanoid Receptor Functional Activity Measured by FLIPR, (FLIPR) Kb (nM): EP1, HEK-293 EBNA stable cells) is reported as 20 nM. The Kb ([3]; EC50 (nM) on Prostanoid Receptor Functional Activity Measured by FLIPR, (FLIPR) Kb (nM): EP2, HEK-293 EBNA stable cells) was 2500 nM, the Kb ([4]; EC50 (nM) on Prostanoid Receptor Functional Activity Measured by FLIPR, (FLIPR) Kb (nM): EP3, HEK-293 EBNA stable cells) was 110 nM and the Kb ([5]; EC50 (nM) on Prostanoid Receptor Functional Activity Measured by FLIPR, (FLIPR) Kb (nM): EP4, HEK-293 EBNA stable cells) was 19 nM. It also gave a Kb [6, 15] of 290 nM and a Kb [7] greater than 1 nM.
